Source: patent US5827073A, “Photoreactive peptide derivatives” (Ludwig Institute for Cancer Research, priority 1995, dated 1998)
“Also recorded” adds a separate entry of the source. Where no end group is shown, it is not given here. [ ]: non-standard residue; d: D form. IASA = not defined here; Dap = NC[C@H](N)C(=O)O

Columns and labels:
Format in all cases: binding, human
HLA-A1 [1] = assay: Inhibition of HLA-A1 photoaffinity labelling on C1R/A1 cells by competitor peptides; details: for binding of MAGE-3 peptide variants to HLA-A1: single alanine substitutions, method not stated
HLA-A29 = assay: Inhibition of HLA-A29 photoaffinity labelling on 807-02 cells by competitor peptides; details: for inhibition of HLA-A29 photoaffinity labelling (HLA-A29 competitor activity / binding): 20-fold molar excess of competitor, FIG. 6B
Method: (§1) All photoaffinity labelling procedures were performed essentially as described by Luescher et al., J. Immunol., 148:1003-011 (1992); Luescher et al., Nature, 351:72-74 (1991); Romero et al., J. Exp. Med., 177:1247-1256 (1993); Luescher et al., J. Biol. Chem., 269:5574-5592 (1994); and Romero et al., J. Immunol. Methods, 171:73-84 (1994). Briefly, HLA-A1 transfected C1R cells, cultured in hygromycin containing medium, or other cell types were resuspended in DMEM medium supplemented with 0.5% fetal calf serum, 10 mM HEPES and 0.25 μg/ml human β2-microglobulin, or as specified, at 6 ×10^6 cells/ml. One ml aliquotes were incubated in 6-well plates with 20 ×10^6 cpm of peptide derivative at 26° C. for 4 hours or as specified.
(§2) After UV irradiation with a 15 W mercury fluorescence lamp with an emission maximum at 365 nm and a band width of 80 nm for 4 minutes at a lamp-sample distance of 2 cm, the cells were washed 4 times with DMEM containing 2% calf serum and 1 time with PBS. The washed cells were lysed and boiled in reducing sample buffer supplemented with MgCl2 and subjected to SDS-PAGE. Alternatively the UV irradiated samples were lysed with NP-40 detergent (0.7%) on ice in the presence of HEPES (50 mM), leupeptin (10 μg/ml), PMSF (0.1 mM), and iodoacetamide (10 MM). Immunoprecipitation of HLA molecules with immobilized W6/32 mAb (Brodsky et al., J. Immunol., 128:129-135 (1982) and SDS-PAGE analysis of the immunoprecipitate were performed as described by Luescher et al., Electrophoresis, 8:508 (1987). The gels were evaluated by autoradiography and in some experiments by densitometry as described by Luescher et al., J. Immunol., 148:1003-1011 (1992). Each labelling experiment was performed at least twice.
After UV irradiation, the cells were lysed and the immunoprecipitated HLA molecules were analyzed by SDS-PAGE and the resulting autoradiograms were evaluated by densitometry. All experiments were performed at least in triplicate. Hundred percent labelling refers to the labelling observed in the absence of a competitor peptide (FIG. 6A).

HLA-A1 [2] = assay: HLA-A1 photoaffinity labelling of HLA-A1 transfected C1R cells with radioiodinated peptide derivative; details: β2-microglobulin, 26° C., UV irradiation, SDS-PAGE
Method: as §1, §2
To perform competition assays, ^51 Cr labelled C1R HLA-A1 transfected cells were incubated in the presence of a suboptimal concentration of the MAGE-3 peptide 168-176 with cloned HLA-A1-restricted MAGE-3-specific CTL 20/38. […] Alternatively, the radioiodinated peptide derivatives were incubated with HLA-A1 transfected C1R cells and following UV irradiation, the lysates of the washed cells were analyzed by SDS-PAGE (10%, reducing conditions).
Following incubation of these cells with the radioiodinated peptide derivatives and UV irradiation, cell lysates were analyzed by SDS-PAGE (FIG. 4B).

HLA class I molecules [3] = assay: Photoaffinity labelling of a panel of cell lines expressing different HLA class I molecules; details: for photoaffinity labelling of 45 kDa HLA heavy chain on LG2-EBV cells: lane 11
Method: as §1, §2
The first 9 were HLA homozygous EBV transformed cells lines that have been described at the 10th International Histocompatibility Workshop (DuPont, Immunobiology of HLA, New York, Springer-Verlag, Vol. 1 (1987)). Workshop numbers are indicated as "ws#", and their HLA-C expression has been determined by PCR (Levine et al., Tissue Antigens, 44:174 (1994)). The heterozygous EBV transformed cell lines were derived from HLA-typed individuals. In the case of HLA-C, the serological typing was incomplete, as indicated by question marks. The remaining cell line was COS-7 cell transfected with HLA-Cw*1601. These cells were subjected to the same labelling procedure as described for FIG. 4B.

HLA class I molecules [4] = assay: as above; details: COS-7 transfectant
HLA-A1 [5] = assay: Dissociation of HLA-A1 peptide derivative complexes on C1R/A1 cells; details: physiological conditions (37° C., no exogenous β2-microglobulin), after 6 hours
Method: FIG. 3 is comprised of FIG. 3A, FIG. 3B and FIG. 3C. FIG. 3A represents SDS-PAGE analysis of EADPTGDap(IASA)SY incubated with C1R/A1 cells or WT51 cells in the presence of β2-microglobulin. FIG. 3B represents SDS-PAGE where incubation was performed at 37° C. or 26° C. in the absence of presence of β2-microglobulin, and the autoradiograms were evaluated by densitometry.
This considerable increase is mainly accounted for by an accordingly less efficient peptide binding under physiological conditions (i.e., 37° C. and no exogenous β2-microglobulin) . Another difference between the human and murine system is the difference in the stability of MHC class 1-peptide complexes. On C1R/A1 cells, the dissociation of HLA-A1 peptide derivative complexes under physiological conditions was remarkably slow, and even after 6 hours of incubation less than 20% dissociation took place (FIG. 3C). Similarly slow dissociations have been reported for other HLA class I molecules (DiBrino et al., J. Immunol., 152:620-631 (1994); Tsomides et al., Proc. Natl. Acad. Sci. USA, 88:11276 (1991)). In contrast, in the murine system, i.e., the Kd, Db of Ld system, under these conditions rapid dissociations with halftimes in the range of one hour have been reported (Luescher et al., Nature, 351:72-74 (1991); Luescher et al., J. Biol. Chem., 269:5574-5582 (1994); Romero et al., 1994, supra).

[6] = labelling with Dap(IASA)-ADPTGHSY on C1R HLA-A1 transfectants, 100-fold molar excess of competitor, densitometry

**Q.** “tyrosinase peptide 368-376: HLA-A2-restricted tyrosinase peptide 368-376 (IYMNGTMSQ; UniProt P14679 368-376, looked up, fragment) [reference compound]” was tested. Which “inhibition of HLA-A1 photoaffinity labelling” value (HLA-A1 [1]; [6]) did it give?
**A.** No significant inhibition

**Q.** What about the “inhibition of HLA-A29 photoaffinity labelling” value (HLA-A29; labelling with Dap(IASA)-ADPTGHSY on 807-02 cells, 100-fold molar excess of competitor, densitometry) of the same substance?
**A.** no detectable inhibition

**Q.** What does the source list for “Dap(IASA)-ADPTGHSY ([Dap](IASA)ADPTGHSY; reading uncertain)”?
**A.** HLA-A1 photoaffinity labelling (45 kDa HLA-A1 heavy chain) (HLA-A1 [2]): efficiently bound to and photoaffinity labelled HLA-A1; HLA-A1 photoaffinity labelling (45 kDa HLA-A1 heavy chain) (HLA-A1 [2]; listed as derivative containing Dap(IASA) in position 1): efficiently labelled; HLA labelling on 806-04 cells (HLA class I molecules [3]; 806-04 (HLA-A29+)): similarly efficient HLA labelling; photoaffinity labelling of 45 kDa HLA heavy chain on 807-02 cells (HLA class I molecules [3]; 807-02 (HLA-A29+), lane 15): significant photoaffinity labelling; also recorded: similarly efficient HLA labelling; photoaffinity labelling of 45 kDa HLA heavy chain on BM21 cells (HLA class I molecules [3]; EBV transformed line BM21 (HLA-A1), lane 1): significant photoaffinity labelling; photoaffinity labelling of 45 kDa HLA heavy chain on MOU cells (HLA class I molecules [3]; EBV transformed line MOU (HLA-A*2902, HLA-B*4403), lane 4): significant photoaffinity labelling; photoaffinity labelling of 45 kDa HLA heavy chain on LG2-EBV cells (HLA class I molecules [3]): significant photoaffinity labelling; photoaffinity labelling of 45 kDa HLA heavy chain on LG2-EBV cells (HLA class I molecules [3]; listed as SEQ ID NO: 8): weak labelling; photoaffinity labelling of 45 kDa material on the other lines tested (HLA class I molecules [3]; lanes 2, 3, 5-10, 12-14): not detectable; HLA labelling on COS-7 cells transfected with HLA-A1 (HLA class I molecules [4]): displayed HLA labelling; HLA labelling on COS-7 cells transfected with HLA-A29 (HLA class I molecules [4]): displayed HLA labelling

**Q.** With “MAGE-3 variant substitution in position 2 with phenylalanine: MAGE-3 peptide 168-176 with position 2 replaced by phenylalanine (EFDPIGHLY; UniProt P43357 168-176, looked up, variant V169F)” as the substance, how does the “inhibition of HLA-A29 photoaffinity labelling (HLA-A29 competitor activity / binding)” value (HLA-A29) read?
**A.** increased

**Q.** How did the “inhibition of HLA-A29 photoaffinity labelling (HLA-A29 competitor activity / binding)” value (HLA-A29) turn out when “MAGE-3 variant alanine substitution of Val-169: MAGE-3 peptide 168-176 with Val-169 (position 2) replaced by alanine (EADPIGHLY; UniProt P43357 168-176, looked up, variant V169A)” was run?
**A.** to a lesser degree

**Q.** What about the “inhibition of HLA-A29 photoaffinity labelling (HLA-A29 competitor activity / binding)” value (HLA-A29; listed as MAGE-3 variant substitution in position 2 with alanine) of the same substance?
**A.** impaired

**Q.** Which “binding of MAGE-3 peptide variants to HLA-A1” value (HLA-A1 [1]) does the source give for “MAGE-3 variant alanine substitution of Asp-170: MAGE-3 peptide 168-176 with Asp-170 replaced by alanine (EVAPIGHLY; UniProt P43357 168-176, looked up, variant D170A)” here?
**A.** substantially impaired its binding

**Q.** What does the source list for “MAGE-3 variant containing Ala in position 9: MAGE-3 peptide 168-176 with Tyr-176 replaced by alanine (EVDPIGHLA; UniProt P43357 168-176, looked up, variant Y176A)”?
**A.** binding of MAGE-3 peptide variants to HLA-A1 (HLA-A1 [1]): substantially impaired its binding; inhibition of HLA-A29 photoaffinity labelling (HLA-A29 competitor activity / binding) (HLA-A29): 13%

**Q.** With “MAGE-3: HLA-A1 restricted MAGE-3 peptide 168-176” as the substance, how does the “inhibition of HLA-A1 photoaffinity labelling” value (HLA-A1 [1]; [6]) read?
**A.** about 98%

**Q.** And the “inhibition of HLA-A1 photoaffinity labelling” value (HLA-A1 [1]; labelling with SEQ ID NO: 1 on C1R/A1 cells, 300 fold molar excess of competitor)?
**A.** completely inhibited

**Q.** What about the “inhibition of HLA-A29 photoaffinity labelling (HLA-A29 competitor activity / binding)” value (HLA-A29) of the same substance?
**A.** approximately 80%

**Q.** “MAGE-3 variant alanine substitution of Ile-172: MAGE-3 peptide 168-176 with Ile-172 replaced by alanine (EVDPAGHLY; UniProt P43357 168-176, looked up, variant I172A)” was tested. Which “inhibition of HLA-A29 photoaffinity labelling (HLA-A29 competitor activity / binding)” value (HLA-A29) did it give?
**A.** markedly reduced the binding

**Q.** What does the source list for “Glu Ala Asp Pro Thr Gly Dap(IASA) Ser Tyr (EADPTG[Dap](IASA)SY; reading uncertain; also: radioiodinated, printed as Glu Ala Asp Pro Thr Gly Dap(IASA) Ser Tyr) [SEQ ID NO: 1]”?
**A.** HLA-A1 photoaffinity labelling (45 kDa HLA-A1 heavy chain) (HLA-A1 [2]): corresponds to the HLA-A1 heavy chain; HLA-A1 photoaffinity labelling (45 kDa HLA-A1 heavy chain) (HLA-A1 [2]; listed as derivative containing Dap(IASA) in position 7): efficiently labelled; HLA labelling on eight other EBV cell lines (HLA class I molecules [3]; eight other EBV cell lines expressing different HLA-A, B and C molecules): Equally negative; HLA labelling on TEM cells (HLA class I molecules [3]; homozygous EBV transformed line TEM, HLA-A26, B-38): No detectable HLA labelling; HLA labelling on WT51 cells (HLA class I molecules [3]; homozygous EBV transformed line WT51, HLA-A23, B65): No detectable HLA labelling; dissociation of HLA-A1 peptide derivative complexes (HLA-A1 [5]): less than 20%

**Q.** Which “inhibition of HLA-A29 photoaffinity labelling (HLA-A29 competitor activity / binding)” value (HLA-A29) does the source give for “MAGE-3 variant Tyr-176 replaced with phenylalanine: MAGE-3 peptide 168-176 with C-terminal tyrosine replaced by phenylalanine (EVDPIGHLF; UniProt P43357 168-176, looked up, variant Y176F)” here?
**A.** largely preserved the HLA-A29 competitor activity; also recorded: considerably diminishes binding

**Q.** How did the “inhibition of HLA-A29 photoaffinity labelling (HLA-A29 competitor activity / binding)” value (HLA-A29) turn out when “MAGE-3 variant substitution in position 2 with isoleucine: MAGE-3 peptide 168-176 with position 2 replaced by isoleucine (EIDPIGHLY; UniProt P43357 168-176, looked up, variant V169I)” was run?
**A.** increased
